{"source": "paper PMC2481421", "about": "“Gene expression response in target organ and whole blood varies as a function of target organ injury phenotype” (Genome Biology, 2008)", "key": {"[1]": {"test_system": "liver", "assay": "Liver histopathology (H&E sections of left liver lobe, severity graded) after a single dose"}, "[2]": {"assay": "In-life observations: body weight, gross findings before and at necropsy", "type": "in vivo, Male Fischer 344/N rats", "settings": "individual animals; for Initial Body Wt.: 48 hours group, baseline weight", "method": "Doses were determined with pilot experiments. […] Serum was collected for clinical chemistry."}, "[3]": {"settings": "15 mg/kg, gavage in corn oil, 48 hours after single dose"}, "[4]": {"settings": "50 mg/kg, gavage in corn oil, 48 hours after single dose"}, "[5]": {"settings": "150 mg/kg, gavage in corn oil, 48 hours after single dose"}, "[6]": {"settings": "Gavage, corn oil, 15 mg/kg, 6 hours"}, "[7]": {"settings": "Gavage, corn oil, 15 mg/kg, 24 hours"}, "[8]": {"settings": "Gavage, corn oil, 50 mg/kg, 6 hours"}, "[9]": {"settings": "Gavage, corn oil, 50 mg/kg, 24 hours"}, "[10]": {"settings": "Gavage, corn oil, 150 mg/kg, 6 hours"}, "[11]": {"settings": "Gavage, corn oil, 150 mg/kg, 24 hours"}}, "note": "Several values for one entry are separate records, joined by “and”; a condition that tells them apart may be missing. Identical values can stand only once. Entries after “also recorded” stand apart in the source; their conditions may differ.", "data": [{"compound": "CC(=N)S", "note": "[Thioacetamide]", "values": [{"measurement": "biliary hyperplasia", "setting": "[1]; 48 hours", "result": "evoked biliary hyperplasia"}, {"measurement": "extent of hepatocellular necrosis, amount of inflammatory cell infiltrates and/or indications of hepatocellular repair (mitosis) across animals", "setting": "[1]; high dose, 48 hour", "result": "variability"}, {"measurement": "Primary site of livery injury", "setting": "[1]; rat, single administration", "result": "Centrilobular"}, {"measurement": "Gross Findings", "setting": "[2]; 15 mg/kg, gavage in corn oil, 48 hours after single dose, at necropsy", "result": "No Gross Findings"}, {"measurement": "Clin/Ob Prior to Necropsy", "setting": "[2]; [3]", "result": "Ungroomed appearance"}, {"measurement": "Final Body Wt.", "setting": "[2]; [3]", "result": "264.10 g and 257.60 g and 259.00 g and 263.10 g"}, {"measurement": "Gross Findings", "setting": "[2]; 50 mg/kg, gavage in corn oil, 48 hours after single dose, at necropsy", "result": "Liver left and median lobes rough surface mild; also recorded: Liver left lobe rough surface mild, median lobe pale rough surface mild; also recorded: Liver left and median lobes pale, mildly firm, rough surface"}, {"measurement": "Clin/Ob Prior to Necropsy", "setting": "[2]; [4]", "result": "Piloerection; also recorded: Ungroomed appearance"}, {"measurement": "Final Body Wt.", "setting": "[2]; [4]", "result": "233.00 g and 228.70 g and 248.40 g and 236.30 g"}, {"measurement": "Gross Findings", "setting": "[2]; 150 mg/kg, gavage in corn oil, 48 hours after single dose, at necropsy", "result": "Liver left and median lobes pale, firm, rough surface mild; Kidney red medulla; also recorded: Liver left and median lobes pale, minimally firm, rough surface mild"}, {"measurement": "Clin/Ob Prior to Necropsy", "setting": "[2]; [5]", "result": "Ungroomed appearance; piloerection; hunched posture; red fur discoloration (cranial dorsum); also recorded: Ungroomed appearance; piloerection; hunched posture; red nasal discharge"}, {"measurement": "Final Body Wt.", "setting": "[2]; [5]", "result": "230.90 g and 232.40 g and 228.10 g and 228.50 g"}, {"measurement": "Clin/Ob Prior to Necropsy", "setting": "[2]; [6]", "result": "Normal"}, {"measurement": "Gross Findings", "setting": "[2]; [6]", "result": "No Gross Findings"}, {"measurement": "Clin/Ob Prior to Necropsy", "setting": "[2]; [7]", "result": "Normal"}, {"measurement": "Final Body Wt.", "setting": "[2]; [7]", "result": "261.90 g and 245.50 g and 259.10 g and 269.60 g"}, {"measurement": "Gross Findings", "setting": "[2]; [7]", "result": "No Gross Findings; also recorded: Liver median lobe rough surface minimal"}, {"measurement": "Clin/Ob Prior to Necropsy", "setting": "[2]; [8]", "result": "Normal"}, {"measurement": "Gross Findings", "setting": "[2]; [8]", "result": "Liver left lobe mottled; also recorded: No Gross Findings"}, {"measurement": "Clin/Ob Prior to Necropsy", "setting": "[2]; [9]", "result": "Ungroomed appearance; also recorded: Normal"}, {"measurement": "Final Body Wt.", "setting": "[2]; [9]", "result": "231.40 g and 233.80 g and 239.30 g and 227.90 g"}, {"measurement": "Gross Findings", "setting": "[2]; [9]", "result": "No Gross Findings; also recorded: Liver left lobe rough surface mild, median lobe rough surface minimal; also recorded: Liver left lobe rough surface minimal, median lobe rough surface mild"}, {"measurement": "Clin/Ob Prior to Necropsy", "setting": "[2]; [10]", "result": "Normal"}, {"measurement": "Gross Findings", "setting": "[2]; [10]", "result": "Liver left lobe mottled; also recorded: No Gross Findings"}, {"measurement": "Clin/Ob Prior to Necropsy", "setting": "[2]; [11]", "result": "Normal; also recorded: Red nasal discharge"}, {"measurement": "Final Body Wt.", "setting": "[2]; [11]", "result": "222.50 g and 236.40 g and 240.60 g"}, {"measurement": "Gross Findings", "setting": "[2]; [11]", "result": "Liver left and median lobes rough surface mild; also recorded: Liver left lobe mottled rough surface minimal, median lobe rough surface mild"}, {"measurement": "Initial Body Wt.", "setting": "[2]; thioacetamide 15 mg/kg, gavage in corn oil", "result": "244.40 g and 241.70 g and 243.00 g and 244.10 g"}, {"measurement": "Initial Body Wt.", "setting": "[2]; thioacetamide 50 mg/kg, gavage in corn oil", "result": "243.30 g and 241.60 g and 248.50 g and 241.50 g"}, {"measurement": "Initial Body Wt.", "setting": "[2]; thioacetamide 150 mg/kg, gavage in corn oil", "result": "240.40 g and 246.90 g and 242.10 g and 241.40 g"}]}]}
